# Experimental data reported in article PMC12514245, “Impaired migration and lung invasion of human melanoma by a novel small molecule targeting the transmembrane domain of death receptor p75^NTR” (EMBO Molecular Medicine, 2025).
# “And” between values parts separate entries of the source, which are not always exact repeats. Identical values can stand only once.
# Tested on: A875 NT cells
# Test: Wound healing cell motility assay, A875 NT
# Type: cell-based, human
# Details: for Wound area, Mean: N=3; for Wound area (Fold), Mean / Wound area (Fold), individual replicates: 10uM; for Wound area (Fold): A875 NT, 1uM
# Protocol: For wound healing assay, cells were grown until confluency and subjected to a wound across the cell mono-layer. Cells were then incubated with serum-free media either with DMSO or a small molecule (with or without 5 µM Q_VD_poH) and imaged at specific time-points. Cell migration is reflected as fold change in wound area over time.
# [1] = 5μM Q_VD_poH + 10μM Div17E5, 0 hours
# [2] = 5μM Q_VD_poH + 10μM Div17E5, 3 hours
# [3] = 5μM Q_VD_poH + 10μM Div17E5, 6 hours
# [4] = 5μM Q_VD_poH + 10μM Div17E5, 9 hours
# [5] = 5μM Q_VD_poH + 10μM Div17E5, 12 hours
# [6] = 5μM Q_VD_poH + 10μM Div17E5, 15 hours
# [7] = 5μM Q_VD_poH + 10μM Div17E5, 18 hours
# [8] = 5μM Q_VD_poH + 10μM Div17E5, 21 hours
# [9] = 5μM Q_VD_poH + 10μM Div17E5, 24 hours
structure (smiles),measurement,setting,value
Oc1ccc(-c2cncc(Nc3ccc(Br)c(Cl)c3)n2)cc1 [Div17E5],cell motility (wound healing),,significantly impaired motility
same,"Wound area, n1-n3",[1],1.151 Fold and 0.989 Fold and 0.859 Fold
same,"Wound area, Mean",[1],1.000 Fold
same,"Wound area, n1-n3",[2],0.948 Fold and 1.003 Fold and 1.022 Fold
same,"Wound area, Mean",[2],0.991 Fold
same,"Wound area, n1-n3",[3],0.944 Fold and 0.988 Fold and 1.047 Fold
same,"Wound area, Mean",[3],0.993 Fold
same,"Wound area, n1-n3",[4],0.936 Fold and 0.934 Fold and 1.001 Fold
same,"Wound area, Mean",[4],0.957 Fold
same,"Wound area, n1-n3",[5],0.937 Fold and 0.894 Fold and 1.002 Fold
same,"Wound area, Mean",[5],0.944 Fold
same,"Wound area, n1-n3",[6],0.938 Fold and 0.874 Fold and 0.985 Fold
same,"Wound area, Mean",[6],0.932 Fold
same,"Wound area, n1-n3",[7],0.920 Fold and 0.852 Fold and 0.976 Fold
same,"Wound area, Mean",[7],0.916 Fold
same,"Wound area, n1-n3",[8],0.922 Fold and 0.829 Fold and 0.962 Fold
same,"Wound area, Mean",[8],0.904 Fold
same,"Wound area, n1-n3",[9],0.916 Fold and 0.831 Fold and 0.939 Fold
same,"Wound area, Mean",[9],0.895 Fold
same,"wound healing assay, comparison of Div17E5, MS_18 and MS_63",10 µM,the better of the three
same,"Wound area, Mean","10μM Div17E5, 0 hours",1.000 Fold
same,"Wound area, n1-n3","10μM Div17E5, 3 hours",1.026 Fold and 0.986 Fold and 1.104 Fold
same,"Wound area, Mean","10μM Div17E5, 3 hours",1.039 Fold
same,"Wound area, n1-n3","10μM Div17E5, 6 hours",0.988 Fold and 0.956 Fold and 1.073 Fold
same,"Wound area, Mean","10μM Div17E5, 6 hours",1.006 Fold
same,"Wound area, n1-n3","10μM Div17E5, 9 hours",0.922 Fold and 0.923 Fold and 1.017 Fold
same,"Wound area, Mean","10μM Div17E5, 9 hours",0.954 Fold
same,"Wound area, n1-n3","10μM Div17E5, 12 hours",0.909 Fold and 0.918 Fold and 0.979 Fold
same,"Wound area, Mean","10μM Div17E5, 12 hours",0.935 Fold
same,"Wound area, n1-n3","10μM Div17E5, 15 hours",0.913 Fold and 0.881 Fold and 0.951 Fold
same,"Wound area, Mean","10μM Div17E5, 15 hours",0.915 Fold
same,"Wound area, n1-n3","10μM Div17E5, 18 hours",0.881 Fold and 0.866 Fold and 0.915 Fold
same,"Wound area, Mean","10μM Div17E5, 18 hours",0.887 Fold
same,"Wound area, n1-n3","10μM Div17E5, 21 hours",0.886 Fold and 0.863 Fold and 0.915 Fold
same,"Wound area, Mean","10μM Div17E5, 21 hours",0.888 Fold
same,"Wound area, n1-n3","10μM Div17E5, 24 hours",0.865 Fold and 0.854 Fold and 0.889 Fold
same,"Wound area, Mean","10μM Div17E5, 24 hours",0.870 Fold
same,"Wound area (Fold), Mean",0 hours,1 Fold
same,"Wound area (Fold), individual replicates",0 hours,1.000 Fold
same,"Wound area (Fold), Mean",3 hours,0.931 Fold
same,"Wound area (Fold), individual replicates",3 hours,0.928 Fold and 0.933 Fold
same,"Wound area (Fold), Mean",6 hours,0.912 Fold
same,"Wound area (Fold), individual replicates",6 hours,0.898 Fold and 0.926 Fold
same,"Wound area (Fold), Mean",9 hours,0.866 Fold
same,"Wound area (Fold), individual replicates",9 hours,0.856 Fold and 0.878 Fold
same,"Wound area (Fold), Mean",12 hours,0.895 Fold
same,"Wound area (Fold), individual replicates",12 hours,0.846 Fold and 0.944 Fold
same,"Wound area (Fold), Mean",15 hours,0.862 Fold
same,"Wound area (Fold), individual replicates",15 hours,0.814 Fold and 0.91 Fold
same,"Wound area (Fold), Mean",18 hours,0.863 Fold
same,"Wound area (Fold), individual replicates",18 hours,0.826 Fold and 0.899 Fold
same,"Wound area (Fold), Mean",21 hours,0.869 Fold
same,"Wound area (Fold), individual replicates",21 hours,0.805 Fold and 0.934 Fold
same,"Wound area (Fold), Mean",24 hours,0.869 Fold
same,"Wound area (Fold), individual replicates",24 hours,0.812 Fold and 0.927 Fold
same,Wound area (Fold),"0 h, Mean",1.000 Fold
same,Wound area (Fold),"0 h, n1",1.026 Fold
same,Wound area (Fold),"0 h, n2",0.960 Fold
same,Wound area (Fold),"0 h, n3",1.014 Fold
same,Wound area (Fold),"3 h, Mean",0.953 Fold
same,Wound area (Fold),"3 h, n1",0.950 Fold
same,Wound area (Fold),"3 h, n2",0.945 Fold
same,Wound area (Fold),"3 h, n3",0.963 Fold
same,Wound area (Fold),"6 h, Mean",0.896 Fold
same,Wound area (Fold),"6 h, n1",0.897 Fold
same,Wound area (Fold),"6 h, n2",0.884 Fold
same,Wound area (Fold),"6 h, n3",0.907 Fold
same,Wound area (Fold),"9 h, Mean",0.858 Fold
same,Wound area (Fold),"9 h, n1",0.855 Fold
same,Wound area (Fold),"9 h, n2",0.847 Fold
same,Wound area (Fold),"9 h, n3",0.872 Fold
